{"source": "patent US20250250261A1", "about": "“NOVEL SUBSTITUTED FLUORINATED VINYL-N-PROPYL-PYRROLIDINE COMPOUNDS, PROCESSES FOR THEIR PREPARATION AND THERAPEUTIC USES THEREOF” (SANOFI, priority 2022, published 2025)"}
{"molecular_target": "T1, ERα (Homo sapiens, UniProt P03372)", "T1 construct": "host or cells: MCF7", "T1 sequence (P03372 1-595)": "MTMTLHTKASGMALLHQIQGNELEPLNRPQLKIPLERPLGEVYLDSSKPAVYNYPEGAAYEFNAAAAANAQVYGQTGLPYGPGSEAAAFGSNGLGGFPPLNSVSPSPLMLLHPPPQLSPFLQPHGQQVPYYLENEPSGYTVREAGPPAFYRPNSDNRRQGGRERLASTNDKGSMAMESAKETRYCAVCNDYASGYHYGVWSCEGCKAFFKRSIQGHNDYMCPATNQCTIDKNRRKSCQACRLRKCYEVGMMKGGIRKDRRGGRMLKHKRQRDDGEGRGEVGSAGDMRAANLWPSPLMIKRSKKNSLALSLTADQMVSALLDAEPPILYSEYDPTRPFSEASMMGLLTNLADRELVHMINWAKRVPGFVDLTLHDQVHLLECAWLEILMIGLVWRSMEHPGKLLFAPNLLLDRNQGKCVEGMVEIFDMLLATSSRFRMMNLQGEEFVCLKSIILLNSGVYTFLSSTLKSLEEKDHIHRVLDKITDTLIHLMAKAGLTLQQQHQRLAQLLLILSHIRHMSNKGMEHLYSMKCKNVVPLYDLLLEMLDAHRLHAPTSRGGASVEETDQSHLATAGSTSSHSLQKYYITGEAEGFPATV", "experiment": "Estrogen receptor degradation activity: breast cancer cell ERα in cell western assay (MCF7 cells)", "format": "cell-based", "conditions": "4 hours, % of ERα levels decrease relative to fulvestrant (0.1 μM) and DMSO", "description": "Test: Estrogen Receptor Degradation Activity\nSaid test involves measuring the in vitro degradation activity of the compounds of the Table 1a.\nThe measurements of the degradation activities were made using a breast cancer cell ERα in cell western assay as described hereunder.\nMCF7 cells (ATCC) were seeded in 384 wells microplate (collagen coated) at a concentration of 10000 cells/30 μL per well in red phenol free MEM alpha medium (invitrogen) containing 5% charcoal dextran striped FBS. The following day, 9 points serial 1:5 dilution of each compound was added to the cells in 2.5 μL at final concentrations ranging from 0.3-0.0000018 μM (in table 2), or 0.1 μM for fulvestrant (using as positive control). At 4 hours post compound addition the cells were fixed by adding 25 μL of formalin (final concentration 5% formalin containing 0.1% triton) for 10 minutes at room temperature and then washed twice with PBS. Then, 50 μL of LI-COR blocking buffer containing 0.1% Triton was added to plate for 30 minutes at room temperature. LI-COR blocking buffer was removed and cells were incubated overnight at cold room with 50 μL anti-ER rabbit monoclonal antibody (Thermo scientific MA1-39540) diluted at 1:1000 in LI-COR blocking buffer containing 0.1% tween-20. Wells which were treated with blocking buffer but no antibody were used as background control. Wells were washed twice with PBS (0.1% tween-20) and incubated at 37° C. for 60 minutes in LI-COR (0.1% tween-20) containing goat anti-rabbit antibody Alexa 488 (1:1000) and Syto-64 a DNA dye (2 μM final concentration). Cells were then washed 3 times in PBS and scanned in ACUMEN explorer (TTP-Labtech). Integrated intensities in the green fluorescence and red fluorescence were measured to determine the levels of ERα and DNA respectively.\nThe degradation activity with respect to estrogen receptors in this test is given by the concentration which degrades 50% of the estrogen receptor (or IC50) in nM.\nThe % of ERα levels decrease were determined as follows: % inhibition=100*(1−(sample−fulvestrant:DMSO−fulvestrant)).", "units": {"% Degradation At 0.3 μM": "%"}}
{"smiles": "Oc1ccc2c(c1)SCCC(c1ccc(Cl)cc1Cl)=C2c1ccc(/C=C2/CCN(CCCF)C2)cc1", "note": "[Compound 30, (Z)-4-(2,4-dichlorophenyl)-5-(4-((1-(3-fluoropropyl)pyrrolidin-3-ylidene)methyl)phenyl)-2,3-dihydrobenzo[b]thiepin-8-ol]", "% Degradation At 0.3 μM": 90}
{"smiles": "O=C(O)c1ccc2c(c1)CCCC(c1ccc(Cl)cc1Cl)=C2c1ccc(/C=C2/CCN(CCCF)C2)c(F)c1", "note": "[Compound 23, (Z)-8-(2,4-dichlorophenyl)-9-(3-fluoro-4-((1-(3-fluoropropyl)pyrrolidin-3-ylidene)methyl)phenyl)-6,7-dihydro-5H-benzo[7]annulene-3-carboxylic acid]", "% Degradation At 0.3 μM": 96}
{"smiles": "Cl.O=C(O)c1ccc2c(c1)CCCC(c1ccc(F)cc1F)=C2c1ccc(/C=C2/CCN(CCC(F)F)C2)cc1", "note": "[Compound 5, (Z)-8-(2,4-difluorophenyl)-9-(4-((1-(3,3-difluoropropyl)pyrrolidin-3-ylidene)methyl)phenyl)-6,7-dihydro-5H-benzo[7]annulene-3-carboxylic acid hydrochloride]", "% Degradation At 0.3 μM": 88}
{"smiles": "Cc1c(Cl)cccc1C1=C(c2ccc(/C=C3/CCN(CCCF)C3)cc2)c2ccc(C(=O)O)cc2CCC1", "note": "[Compound 10, (Z)-8-(3-chloro-2-methylphenyl)-9-(4-((1-(3-fluoropropyl)pyrrolidin-3-ylidene)methyl)phenyl)-6,7-dihydro-5H-benzo[7]annulene-3-carboxylic acid]", "% Degradation At 0.3 μM": 92}
{"smiles": "Cc1c(C2=C(c3ccc(/C=C4/CCN(CCCF)C4)cc3)c3ccc(C(=O)O)cc3CCC2)cccc1C(F)(F)F", "note": "[Compound 14, (Z)-9-(4-((1-(3-fluoropropyl)pyrrolidin-3-ylidene)methyl)phenyl)-8-(2-methyl-3-(trifluoromethyl)phenyl)-6,7-dihydro-5H-benzo[7]annulene-3-carboxylic acid]", "% Degradation At 0.3 μM": 92}
{"smiles": "O=C(O)c1ccc2c(c1)CCCC(c1ccc(C(F)(F)F)cc1)=C2c1ccc(/C=C2/CCN(CCCF)C2)cc1", "note": "[Compound 26, (Z)-9-(4-((1-(3-fluoropropyl)pyrrolidin-3-ylidene)methyl)phenyl)-8-(4-(trifluoromethyl)phenyl)-6,7-dihydro-5H-benzo[7]annulene-3-carboxylic acid]", "% Degradation At 0.3 μM": 92}
{"smiles": "Cc1cc(C2=C(c3ccc(/C=C4/CCN(CCCF)C4)cc3)c3ccc(C(=O)O)cc3CCC2)c(C)cc1F", "note": "[Compound 29, (Z)-8-(4-fluoro-2,5-dimethylphenyl)-9-(4-((1-(3-fluoropropyl)pyrrolidin-3-ylidene)methyl)phenyl)-6,7-dihydro-5H-benzo[7]annulene-3-carboxylic acid]", "% Degradation At 0.3 μM": 92}
{"smiles": "O=C(O)c1ccc2c(c1)CCCC(c1ccc(F)cc1C(F)(F)F)=C2c1ccc(/C=C2/CCN(CCC(F)F)C2)cc1", "note": "[Compound 18, (Z)-9-(4-((1-(3,3-difluoropropyl)pyrrolidin-3-ylidene)methyl)phenyl)-8-(4-fluoro-2-(trifluoromethyl)phenyl)-6,7-dihydro-5H-benzo[7]annulene-3-carboxylic acid]", "% Degradation At 0.3 μM": 86}
{"smiles": "Cc1c(Cl)cccc1C1=C(c2ccc(/C=C3/CCN(CCC(F)F)C3)cc2)c2ccc(C(=O)O)cc2CCC1", "note": "[Compound 13, (Z)-8-(3-chloro-2-methylphenyl)-9-(4-((1-(3,3-difluoropropyl)pyrrolidin-3-ylidene)methyl)phenyl)-6,7-dihydro-5H-benzo[7]annulene-3-carboxylic acid]", "% Degradation At 0.3 μM": 86}
{"smiles": "Cl.O=C(O)c1ccc2c(c1)OCCC(c1ccc(Cl)cc1Cl)=C2c1ccc(/C=C2/CCN(CCCF)C2)cc1", "note": "[Compound 3, (Z)-4-(2,4-dichlorophenyl)-5-(4-((1-(3-fluoropropyl)pyrrolidin-3-ylidene)methyl)phenyl)-2,3-dihydrobenzo[b]oxepine-8-carboxylic acid hydrochloride]", "% Degradation At 0.3 μM": 95}
{"smiles": "O=C(O)c1ccc2c(c1)CCCC(c1ccc(F)cc1F)=C2c1ccc(/C=C2/CCN(CCCF)C2)cc1", "note": "[Compound 9, (Z)-8-(2,4-difluorophenyl)-9-(4-((1-(3,3-fluoropropyl)pyrrolidin-3-ylidene)methyl)phenyl)-6,7-dihydro-5H-benzo[7]annulene-3-carboxylic]", "% Degradation At 0.3 μM": 93}
{"smiles": "O=C(O)c1ccc2c(c1)CCCC(c1ccc(F)cc1C(F)(F)F)=C2c1ccc(/C=C2/CCN(CCCF)C2)cc1", "note": "[Compound 8, (Z)-8-(4-fluoro-2-(trifluoromethyl)phenyl)-9-(4-((1-(3-fluoropropyl)pyrrolidin-3-ylidene)methyl)phenyl)-6,7-dihydro-5H-benzo[7]annulene-3-carboxylic acid]", "% Degradation At 0.3 μM": 90}
{"smiles": "O=C(O)c1ccc2c(c1)CCCC(c1ccc(Cl)cc1)=C2c1ccc(/C=C2/CCN(CCCF)C2)cc1", "note": "[Compound 28, (Z)-8-(4-chlorophenyl)-9-(4-((1-(3-fluoropropyl)pyrrolidin-3-ylidene)methyl)phenyl)-6,7-dihydro-5H-benzo[7]annulene-3-carboxylic acid]", "% Degradation At 0.3 μM": 93}
{"smiles": "O=C(O)c1ccc2c(c1)CCCC(c1cccc(C(F)(F)F)c1)=C2c1ccc(/C=C2/CCN(CCCF)C2)cc1", "note": "[Compound 25, (Z)-9-(4-((1-(3-fluoropropyl)pyrrolidin-3-ylidene)methyl)phenyl)-8-(3-(trifluoromethyl)phenyl)-6,7-dihydro-5H-benzo[7]annulene-3-carboxylic acid]", "% Degradation At 0.3 μM": 91}
{"smiles": "O=C(O)c1ccc2c(c1)CCCC(c1ccc(Cl)cc1Cl)=C2c1ccc(C=C2CCN(CCC(F)F)C2)cc1", "note": "[Compound 4, (Z)-8-(2,4-dichlorophenyl)-9-(4-((1-(3,3-difluoropropyl)pyrrolidin-3-ylidene)methyl)phenyl)-6,7-dihydro-5H-benzo[7]annulene-3-carboxylic acid]", "% Degradation At 0.3 μM": 73}
{"smiles": "O=C(O)c1ccc2c(c1)CCCC(c1ccc(F)cc1Cl)=C2c1ccc(/C=C2/CCN(CCCF)C2)cc1", "note": "[Compound 2, (Z)-8-(2-chloro-4-fluorophenyl)-9-(4-((1-(3,3-fluoropropyl)pyrrolidin-3-ylidene)methyl)phenyl)-6,7-dihydro-5H-benzo[7]annulene-3-carboxylic acid]", "% Degradation At 0.3 μM": 91}
{"smiles": "Cl.O=C(O)c1ccc2c(c1)CCC(c1ccc(Cl)cc1Cl)=C2c1ccc(/C=C2/CCN(CCCF)C2)cc1", "note": "[Compound 24, (Z)-6-(2,4-dichlorophenyl)-5-(4-((1-(3-fluoropropyl)pyrrolidin-3-ylidene)methyl)phenyl)-7,8-dihydronaphthalene-2-carboxylic acid hydrochloride]", "% Degradation At 0.3 μM": 91}
{"smiles": "Oc1ccc2c(c1)CCCC(c1ccc(Cl)cc1Cl)=C2c1ccc(/C=C2/CCN(CCC(F)F)C2)cc1", "note": "[Compound 17, (Z)-8-(2,4-dichlorophenyl)-9-(4-((1-(3-difluoropropyl)pyrrolidin-3-ylidene)methyl)phenyl)-6,7-dihydro-5H-benzo[7]annulen-3-ol]", "% Degradation At 0.3 μM": 61}
{"smiles": "FCCCN1CC/C(=C/c2ccc(C3=C(c4ccccc4Cl)CCCc4ccccc43)cc2)C1", "note": "[Compound 7, (Z)-3-(4-(8-(2-chlorophenyl)-6,7-dihydro-5H-benzo[7]annulen-9-yl)benzylidene)-1-(3-fluoropropyl)pyrrolidine]", "% Degradation At 0.3 μM": 82}
{"smiles": "Cc1c(C2=C(c3ccc(/C=C4/CCN(CCC(F)F)C4)cc3)c3ccc(C(=O)O)cc3CCC2)cccc1C(F)(F)F", "note": "[Compound 19, (Z)-9-(4-((1-(3,3-difluoropropyl)pyrrolidin-3-ylidene)methyl)phenyl)-8-(2-methyl-3-(trifluoromethyl)phenyl)-6,7-dihydro-5H-benzo[7]annulene-3-carboxylic acid]", "% Degradation At 0.3 μM": 87}
